From ChEMBL document CHEMBL1137046, “Potent and selective proline derived dipeptidyl peptidase IV inhibitors” (Bioorg Med Chem Lett, 2004) come the findings set out here.

Series [1] is described as follows: Plasma clearance in rats (1/2 mg/kg i.v./p.o.). The format is ADME, organism-based. The following applies: rat, 1 mg/kg i.v.
The nature of series [2]: Half-life in rats ([…]/[…] mg/kg i.v./p.o.). It counts as ADME, organism-based. As to conditions: rat, in vivo, 2 mg/kg.
Series [3] is described as follows: Oral bioavailability in rat (dose 1 mg/kg i.v. and 2 mg/kg p.o.). The format is ADME, organism-based. The following applies: in vivo.
The next series deals with Dipeptidyl peptidase 2 (Homo sapiens, UniProt Q9UHL4). The series can be described thus: Inhibition of Quiescent cell prolyl dipeptidase.
The target of another series is Dipeptidyl peptidase 8 (Homo sapiens, UniProt Q6V1X1). The series can be described thus: Inhibition of Dipeptidylpeptidase VIII.
The next series concerns the target T1, Prolyl endopeptidase FAP (Homo sapiens, UniProt Q12884).
T1 sequence (Q12884 whole entry): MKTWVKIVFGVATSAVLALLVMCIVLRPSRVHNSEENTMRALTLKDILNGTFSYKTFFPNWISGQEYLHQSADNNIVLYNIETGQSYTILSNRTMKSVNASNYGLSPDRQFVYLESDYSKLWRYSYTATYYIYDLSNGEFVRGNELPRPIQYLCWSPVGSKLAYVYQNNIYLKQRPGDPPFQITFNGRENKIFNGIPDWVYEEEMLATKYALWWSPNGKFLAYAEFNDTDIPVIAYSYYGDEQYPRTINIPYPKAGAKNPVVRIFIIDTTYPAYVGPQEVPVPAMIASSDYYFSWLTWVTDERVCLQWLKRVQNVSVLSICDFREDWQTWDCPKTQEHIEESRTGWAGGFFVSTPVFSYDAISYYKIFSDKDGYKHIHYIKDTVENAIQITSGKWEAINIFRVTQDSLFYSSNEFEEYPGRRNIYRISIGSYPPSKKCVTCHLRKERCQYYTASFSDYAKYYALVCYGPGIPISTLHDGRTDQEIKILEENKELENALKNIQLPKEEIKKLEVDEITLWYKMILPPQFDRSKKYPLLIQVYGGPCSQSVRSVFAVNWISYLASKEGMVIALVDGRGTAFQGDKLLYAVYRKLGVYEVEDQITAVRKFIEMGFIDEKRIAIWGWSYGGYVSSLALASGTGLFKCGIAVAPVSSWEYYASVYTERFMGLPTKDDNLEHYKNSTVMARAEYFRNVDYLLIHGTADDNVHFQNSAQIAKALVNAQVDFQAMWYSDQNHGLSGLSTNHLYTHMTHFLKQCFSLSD
The series can be described thus: Inhibition of Fibroblast activation protein alpha (seprase).

For another series, the target named is T2, Prolyl endopeptidase (Homo sapiens, UniProt P48147).
T2 sequence (P48147 whole entry): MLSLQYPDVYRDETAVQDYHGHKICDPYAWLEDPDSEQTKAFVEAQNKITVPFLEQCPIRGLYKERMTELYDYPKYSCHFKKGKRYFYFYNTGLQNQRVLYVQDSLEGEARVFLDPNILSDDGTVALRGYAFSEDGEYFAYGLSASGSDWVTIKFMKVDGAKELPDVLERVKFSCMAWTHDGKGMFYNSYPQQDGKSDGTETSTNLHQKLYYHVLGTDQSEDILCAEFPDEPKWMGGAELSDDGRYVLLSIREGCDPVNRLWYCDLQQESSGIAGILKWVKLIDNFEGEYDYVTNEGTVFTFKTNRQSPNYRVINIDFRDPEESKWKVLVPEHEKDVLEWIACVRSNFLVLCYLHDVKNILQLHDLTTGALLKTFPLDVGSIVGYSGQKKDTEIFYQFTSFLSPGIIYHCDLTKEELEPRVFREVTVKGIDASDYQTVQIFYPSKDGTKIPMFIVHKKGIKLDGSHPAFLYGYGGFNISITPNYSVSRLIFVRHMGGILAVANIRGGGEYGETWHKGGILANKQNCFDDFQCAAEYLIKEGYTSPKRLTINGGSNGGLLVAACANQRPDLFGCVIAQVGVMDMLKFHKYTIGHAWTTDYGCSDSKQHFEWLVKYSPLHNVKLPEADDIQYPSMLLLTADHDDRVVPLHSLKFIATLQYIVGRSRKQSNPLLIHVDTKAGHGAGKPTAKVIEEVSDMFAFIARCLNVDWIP
The series can be described thus: Inhibition of prolyl endopeptidase.

In the next series the target is Dipeptidyl peptidase 4 (Homo sapiens, UniProt P27487). The series can be described thus: Inhibition of human recombinant Dipeptidylpeptidase IV.
Series [4] can be described thus: Inhibition of Aminopeptidase P.
The target in series [5] is Voltage-gated inwardly rectifying potassium channel KCNH2 (Homo sapiens, UniProt Q12809). The series can be described thus: Inhibition of human Potassium channel HERG.
Another series has as its target T3, Xaa-Pro dipeptidase (Homo sapiens, UniProt P12955).
T3 sequence (P12955 whole entry): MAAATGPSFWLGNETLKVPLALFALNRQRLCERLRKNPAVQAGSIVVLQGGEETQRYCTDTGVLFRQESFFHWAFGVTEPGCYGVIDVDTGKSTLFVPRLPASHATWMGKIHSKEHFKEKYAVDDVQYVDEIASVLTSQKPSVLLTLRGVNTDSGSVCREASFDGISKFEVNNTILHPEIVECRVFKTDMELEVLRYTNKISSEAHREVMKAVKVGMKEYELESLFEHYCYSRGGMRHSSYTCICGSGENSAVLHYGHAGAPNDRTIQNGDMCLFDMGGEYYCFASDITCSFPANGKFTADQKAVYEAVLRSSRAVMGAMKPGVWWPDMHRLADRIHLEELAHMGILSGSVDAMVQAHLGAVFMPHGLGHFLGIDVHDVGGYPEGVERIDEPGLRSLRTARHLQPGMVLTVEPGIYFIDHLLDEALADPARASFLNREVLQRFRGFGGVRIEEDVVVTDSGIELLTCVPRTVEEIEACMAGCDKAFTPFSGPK
In words: Inhibition of prolidase.

The next series deals with Dipeptidyl peptidase 9 (Homo sapiens, UniProt Q86TI2). In words: Inhibition of Dipeptidylpeptidase IX.

pIC50: −log10 of the molar value.

Dipeptidyl peptidase 9, sequence (Q86TI2 whole entry): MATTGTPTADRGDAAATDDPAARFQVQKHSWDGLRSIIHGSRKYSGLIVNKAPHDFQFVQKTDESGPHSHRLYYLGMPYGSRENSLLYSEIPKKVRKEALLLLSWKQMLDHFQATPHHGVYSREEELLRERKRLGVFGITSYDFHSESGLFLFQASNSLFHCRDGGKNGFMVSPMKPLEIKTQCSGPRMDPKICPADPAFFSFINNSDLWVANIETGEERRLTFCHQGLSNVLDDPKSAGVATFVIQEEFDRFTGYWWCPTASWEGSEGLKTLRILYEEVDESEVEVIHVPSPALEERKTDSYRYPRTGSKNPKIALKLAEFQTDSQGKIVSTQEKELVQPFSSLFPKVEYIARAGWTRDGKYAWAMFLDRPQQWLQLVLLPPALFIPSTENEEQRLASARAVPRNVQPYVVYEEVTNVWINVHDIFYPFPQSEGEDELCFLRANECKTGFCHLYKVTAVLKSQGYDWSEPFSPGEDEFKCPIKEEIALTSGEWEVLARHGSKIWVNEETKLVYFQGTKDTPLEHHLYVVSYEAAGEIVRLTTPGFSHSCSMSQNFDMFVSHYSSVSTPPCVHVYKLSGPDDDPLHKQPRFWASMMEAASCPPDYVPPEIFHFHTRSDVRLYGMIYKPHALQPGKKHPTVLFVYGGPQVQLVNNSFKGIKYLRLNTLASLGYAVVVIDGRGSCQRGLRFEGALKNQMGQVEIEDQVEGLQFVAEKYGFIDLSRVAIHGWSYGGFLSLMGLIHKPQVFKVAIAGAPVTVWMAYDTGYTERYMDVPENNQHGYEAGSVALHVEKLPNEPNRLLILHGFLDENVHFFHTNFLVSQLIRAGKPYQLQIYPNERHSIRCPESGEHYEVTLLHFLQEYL
Dipeptidyl peptidase 8, sequence (Q6V1X1 whole entry): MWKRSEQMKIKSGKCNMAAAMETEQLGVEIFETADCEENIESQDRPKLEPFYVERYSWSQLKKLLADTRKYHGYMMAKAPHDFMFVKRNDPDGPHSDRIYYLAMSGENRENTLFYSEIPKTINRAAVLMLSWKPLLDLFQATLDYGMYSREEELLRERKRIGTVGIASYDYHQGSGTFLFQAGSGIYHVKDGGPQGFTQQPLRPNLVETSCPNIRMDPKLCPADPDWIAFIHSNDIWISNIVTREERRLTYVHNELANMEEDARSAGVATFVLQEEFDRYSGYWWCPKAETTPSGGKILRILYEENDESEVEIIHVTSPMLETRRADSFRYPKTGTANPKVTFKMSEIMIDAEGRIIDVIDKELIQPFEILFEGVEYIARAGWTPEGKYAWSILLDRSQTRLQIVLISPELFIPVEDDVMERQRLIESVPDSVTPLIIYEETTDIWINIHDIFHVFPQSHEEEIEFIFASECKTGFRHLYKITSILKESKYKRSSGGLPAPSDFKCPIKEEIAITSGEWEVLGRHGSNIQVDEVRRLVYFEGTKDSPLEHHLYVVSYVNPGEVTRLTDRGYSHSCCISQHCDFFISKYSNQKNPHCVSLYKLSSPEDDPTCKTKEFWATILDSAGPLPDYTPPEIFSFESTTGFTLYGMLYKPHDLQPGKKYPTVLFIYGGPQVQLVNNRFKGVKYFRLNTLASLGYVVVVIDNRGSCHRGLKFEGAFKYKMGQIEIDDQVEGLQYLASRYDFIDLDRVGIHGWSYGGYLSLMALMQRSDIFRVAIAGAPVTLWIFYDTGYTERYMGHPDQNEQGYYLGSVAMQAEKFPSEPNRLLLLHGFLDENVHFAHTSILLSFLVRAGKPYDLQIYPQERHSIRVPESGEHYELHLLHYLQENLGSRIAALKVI
Dipeptidyl peptidase 4, sequence (P27487 whole entry): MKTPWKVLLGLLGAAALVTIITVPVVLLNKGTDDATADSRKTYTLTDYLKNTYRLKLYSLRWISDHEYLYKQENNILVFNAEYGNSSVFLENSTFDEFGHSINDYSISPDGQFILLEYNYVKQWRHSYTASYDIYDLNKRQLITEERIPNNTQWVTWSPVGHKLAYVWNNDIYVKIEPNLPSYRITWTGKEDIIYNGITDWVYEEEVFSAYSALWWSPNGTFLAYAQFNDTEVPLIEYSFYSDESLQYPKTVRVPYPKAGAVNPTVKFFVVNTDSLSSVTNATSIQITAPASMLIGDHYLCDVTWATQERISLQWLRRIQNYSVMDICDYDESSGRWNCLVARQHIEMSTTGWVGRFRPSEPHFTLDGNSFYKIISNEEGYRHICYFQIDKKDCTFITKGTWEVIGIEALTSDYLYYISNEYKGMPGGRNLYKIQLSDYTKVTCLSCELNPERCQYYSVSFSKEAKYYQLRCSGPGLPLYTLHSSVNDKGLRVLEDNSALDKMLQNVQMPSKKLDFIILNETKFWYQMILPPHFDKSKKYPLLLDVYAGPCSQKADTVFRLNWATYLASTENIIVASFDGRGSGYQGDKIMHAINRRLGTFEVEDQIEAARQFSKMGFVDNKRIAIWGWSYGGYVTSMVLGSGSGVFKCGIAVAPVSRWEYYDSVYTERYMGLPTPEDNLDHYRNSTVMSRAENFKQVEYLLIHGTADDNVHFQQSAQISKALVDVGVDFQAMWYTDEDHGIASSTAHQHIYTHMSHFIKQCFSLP
Voltage-gated inwardly rectifying potassium channel KCNH2, sequence (Q12809 whole entry): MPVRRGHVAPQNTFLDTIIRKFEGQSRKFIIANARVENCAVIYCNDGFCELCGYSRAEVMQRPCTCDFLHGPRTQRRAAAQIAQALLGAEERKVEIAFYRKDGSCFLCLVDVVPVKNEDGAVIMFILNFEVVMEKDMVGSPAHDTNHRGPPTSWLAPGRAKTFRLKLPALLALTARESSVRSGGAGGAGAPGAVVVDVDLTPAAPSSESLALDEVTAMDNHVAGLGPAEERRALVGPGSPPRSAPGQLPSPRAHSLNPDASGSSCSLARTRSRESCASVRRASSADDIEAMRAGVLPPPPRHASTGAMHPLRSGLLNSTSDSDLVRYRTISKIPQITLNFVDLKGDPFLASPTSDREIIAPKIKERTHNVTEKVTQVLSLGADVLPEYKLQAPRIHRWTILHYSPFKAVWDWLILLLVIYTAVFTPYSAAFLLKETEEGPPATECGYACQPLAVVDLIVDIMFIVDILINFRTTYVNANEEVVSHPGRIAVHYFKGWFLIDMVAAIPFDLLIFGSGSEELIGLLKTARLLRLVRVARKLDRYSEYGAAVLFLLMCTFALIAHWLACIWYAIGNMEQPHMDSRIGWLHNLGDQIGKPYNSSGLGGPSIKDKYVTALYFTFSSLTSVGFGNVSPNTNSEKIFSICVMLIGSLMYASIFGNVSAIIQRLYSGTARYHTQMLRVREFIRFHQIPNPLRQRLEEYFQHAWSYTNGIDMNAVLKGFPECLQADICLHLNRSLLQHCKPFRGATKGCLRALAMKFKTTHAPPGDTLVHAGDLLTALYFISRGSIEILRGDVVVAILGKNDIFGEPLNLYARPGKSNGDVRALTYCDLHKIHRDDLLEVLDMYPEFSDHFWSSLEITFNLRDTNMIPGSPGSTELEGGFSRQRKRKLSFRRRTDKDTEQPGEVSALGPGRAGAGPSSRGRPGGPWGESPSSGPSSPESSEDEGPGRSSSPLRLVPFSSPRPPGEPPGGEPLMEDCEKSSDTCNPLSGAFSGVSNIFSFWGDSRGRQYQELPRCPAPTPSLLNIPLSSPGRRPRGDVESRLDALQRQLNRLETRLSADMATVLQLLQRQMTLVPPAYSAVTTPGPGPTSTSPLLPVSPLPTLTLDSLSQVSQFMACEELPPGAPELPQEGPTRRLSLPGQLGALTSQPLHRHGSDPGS

`NC(CC(=O)N1CSC[C@H]1C(=O)NCc1ccc(CC(=O)O)cc1)Cc1ccccc1F.O=C(O)C(F)(F)F` (stereo not given in full): in series [1], the clearance was 25 mL/min/kg. In series [2], the half-life (commonly how long it takes for the measured level to halve) is 11.4 min. Moreover, the bioavailability (as a rule, the share of a dose that reaches the circulation, judged against a reference dose that is usually intravenous) in series [3] was 10%. Further, the values for the pIC50 against Dipeptidyl peptidase 2, on Dipeptidyl peptidase 8 and at Prolyl endopeptidase FAP were less than 4.00, less than 4.30 and less than 4.00, respectively.
`COC(=O)Cc1ccc(CNC(=O)[C@@H]2CSCN2C(=O)CC(N)Cc2ccccc2F)cc1.O=C(O)C(F)(F)F` (stereo not given in full): in series [1], the clearance worked out at 140 mL/min/kg. For the same molecule, the pIC50 (usually the IC50 on a negative log10 scale, so that one unit is a factor of ten) was 4.00 at Prolyl endopeptidase; 4.23 at Dipeptidyl peptidase 2; less than 4.00 against Dipeptidyl peptidase 8; 7.06 on Dipeptidyl peptidase 4; less than 4.00 in series [4]; 5.01 in series [5]. Further, the pIC50 on Xaa-Pro dipeptidase, at Prolyl endopeptidase FAP and against Dipeptidyl peptidase 9 was less than 4.00 throughout. This molecule also showed a half-life in series [2] of 6 min. Besides, the bioavailability in series [3] turned out to be 11%.
In series [1], `CC(C)[C@@H](Oc1ccc(CNC(=O)[C@@H]2CCCN2C(=O)CC(N)Cc2cc(F)ccc2F)cc1)C(=O)O.O=C(O)C(F)(F)F` (stereo not given in full) yielded a clearance of 150 mL/min/kg. In addition, the negative-log IC50 (pIC50) was 4.41 against Prolyl endopeptidase; less than 4.00 against Dipeptidyl peptidase 2; less than 4.00 at Dipeptidyl peptidase 8; 9.32 at Dipeptidyl peptidase 4; less than 4.00 in series [4]; less than 4.00 at Xaa-Pro dipeptidase. Further, the pIC50 was 4.68 against Prolyl endopeptidase FAP and 4.07 at Dipeptidyl peptidase 9. This molecule also showed a half-life in series [2] of 37.8 min.
In the case of `CC(C)[C@@H](Oc1ccc(CNC(=O)[C@@H]2CCCN2C(=O)C(N)C2CCCCC2)cc1)C(=O)O` (stereo not given in full), the pIC50 against Prolyl endopeptidase is less than 4.00; at Dipeptidyl peptidase 2, less than 4.00; in [5], less than 4.05; against Prolyl endopeptidase FAP, less than 4.00.
`NC(CC(=O)N1CCC[C@H]1C(=O)NCc1ccc(C(F)(F)F)cc1)Cc1ccccc1F.O=C(O)C(F)(F)F` (stereo not given in full) showed a clearance in [1] of 78 mL/min/kg. Further, the half-life in series [2] is 46.8 min. In series [3], the bioavailability worked out at 38%. The pIC50 was 4.26 against Dipeptidyl peptidase 2; 5.28 on Dipeptidyl peptidase 8; 6.14 on Dipeptidyl peptidase 4; less than 4.00 in series [4]; less than 4.00 at Xaa-Pro dipeptidase; less than 4.00 on Prolyl endopeptidase FAP. This molecule showed a negative-log IC50 (pIC50) at Dipeptidyl peptidase 9 of less than 4.00.
In series [1], `NC(CC(=O)N1CCC[C@H]1C(=O)NCc1ccc(C(=O)O)cc1)Cc1ccc(F)c(F)c1.O=C(O)C(F)(F)F` (stereo not given in full) displayed a clearance of 47 mL/min/kg. The half-life in series [2] is 21.6 min. Moreover, the bioavailability in series [3] was less than 1%. Further, the pIC50 at Dipeptidyl peptidase 2, against Dipeptidyl peptidase 8, on Prolyl endopeptidase FAP and against Dipeptidyl peptidase 9 was less than 4.00 in each case.
On to `CC(C)[C@@H](Oc1ccc(CNC(=O)[C@@H]2CCCN2C(=O)CC(N)Cc2c(F)c(F)c(F)c(F)c2F)cc1)C(=O)O.O=C(O)C(F)(F)F` (stereo not given in full), for which the clearance in series [1] is 47 mL/min/kg. Besides, the pIC50 is less than 4.00 on Prolyl endopeptidase; less than 4.00 on Dipeptidyl peptidase 2; less than 4.00 at Dipeptidyl peptidase 8; 8.09 at Dipeptidyl peptidase 4; less than 4.00 in series [4]; less than 4.00 against Xaa-Pro dipeptidase. Also, the pIC50 on Prolyl endopeptidase FAP was 4.32; against Dipeptidyl peptidase 9, less than 4.00. Moreover, in [2], the half-life is 21.6 min. In addition, in series [3], the bioavailability was less than 1%.
Regarding `NC(CC(=O)N1CCC[C@H]1C(=O)NCCCCc1nn[nH]n1)Cc1ccccc1F.O=C(O)C(F)(F)F` (stereo not given in full), the clearance in [1] was 54 mL/min/kg. For the same molecule, the half-life in series [2] is 12 min. The bioavailability in series [3] was less than 1%. Besides, the pIC50 on Dipeptidyl peptidase 2 is less than 4.00; on Dipeptidyl peptidase 8, less than 4.00; at Dipeptidyl peptidase 4 it was 7.41; in series [4], less than 4.00; on Xaa-Pro dipeptidase, less than 4.00; against Prolyl endopeptidase FAP, less than 4.00. This molecule also showed a negative logarithm of the IC50 (pIC50) at Dipeptidyl peptidase 9 of less than 4.00.
